What was measured:
APP/PS1 HET mice = test: Resident-Intruder (RI) test of aggression; type: in vivo
Source text: Behavioral aggression is a common symptom associated with Alzheimer's disease. The Resident-Intruder (RI) test is a behavioral test that can assess aggression in male mice. The two output measures are latency to attack and total number of attacks during the test. 40 Male APP/PS1 HET and 10 Male APP/PS1 WT were used as “residents”. Male C57BL/6J mice were used as intruders.
• animal age (>2 vs. >6 months for Fmr1 and APP/PS1) • housing conditions (APP/PS1 were single housed for 3 weeks ahead of testing) • lab, diet, and potentially lighting Many Other Key Variables were the Same: • route and timing of drug admin (i.p injection 30 min ahead of testing) • gender (male only) • genetic background (C57BL/6J) • 10 animals/group
Mice were screened for baseline aggression in the Resident Intruder test. Mice with attack latencies exceeding 150 seconds were excluded from the study. Mice were then balanced by latency to first attack, attack frequency, and body weight.
Gaboxadol (referred to as Test compound A) was tested at 0.5, 1, and 2 mg/kg following IP injection, 30 min pre-treat time. Mice were tested in Resident-Intruder paradigm for 5 minutes test duration.

male C57 mice = test: Locomotor activity, male C57 mice; type: in vivo; conditions: male C57 mice, 1.25, 2.5 and 5 mg/Kg i.p. 30 min ahead of testing
Experimental: 10 male C57 mice were administered 0.9% NaCl, and gaboxadol: 1.25 mg/Kg, 2.5 mg/Kg and 5 mg/Kg by i.p injection 30 min ahead of testing.

male Balb/Cbyj mice = test: Locomotor activity, male Balb/Cbyj mice; type: in vivo; conditions: male Balb/Cbyj mice, 1.25, 2.5 and 5 mg/Kg i.p. 30 min ahead of testing
Experimental: 10 male Balb/Cbyj mice were administered 0.9% NaCl, and gaboxadol: 1.25 mg/Kg, 2.5 mg/Kg and 5 mg/Kg by i.p injection 30 min ahead of testing.

[1] = system: subjects under sleep-restriction; conditions: 15 mg, cited from earlier work
healthy subjects = conditions: cited from earlier work
[2] = system: primary insomnia subjects; conditions: cited from earlier work
[3] = system: patients with primary insomnia; conditions: cited from earlier work
[4] = system: healthy young and elderly individuals; conditions: in vivo; cited from earlier work
cerebellar granule cells = conditions: 500 nM; cited from earlier work
Fmr1 knockout mice = conditions: in vivo; cited from earlier work
GABA = conditions: cited from earlier work
GABA-uptake = conditions: cited from earlier work
[5] = cited from earlier work
[6] = system: mouse model of Angelman syndrome; conditions: cited from earlier work
predisposed individuals = conditions: high peak concentrations; cited from earlier work

## Oc1noc2c1CCNC2 [gaboxadol, 4,5,6,7-tetrahydroisoxazolo(5,4-c)pyridin-3-ol]
APP/PS1 HET mice; Alzheimer disease model
  heightened aggression: normalizes heightened aggression
APP/PS1 HET mice; HET mice, 0.5, 1, and 2 mg/kg IP, 30 min pre-treat
  attack frequency: significantly attenuated
APP/PS1 HET mice; HET mice, 0.5, 1, and 2 mg/kg IP, 30 min pre-treat, compared to vehicle
  latency to first attack: significantly increased
Male C57 mice
  sedation (locomotor activity, total distance traveled): not sedating
Male Balb/Cbyj mice
  sedation (locomotor activity, total distance traveled): not sedating
[1]; over four sleep-restriction nights
  mean more SWS compared to placebo: 21.8 min
[1]; p<0.001
  stage 4 sleep and SWS compared with the placebo group: significantly more
[1]
  stage 1 sleep, REM sleep, and shifts to wake or stage 1 sleep relative to placebo: small but significant reductions
Healthy subjects; all dosages (5, 10, 15 mg), p<0.001
  TST increase compared to placebo: approximately 30 minutes
Healthy subjects; all dosages (5, 10, 15 mg), p<0.05
  WASO reduction compared to placebo: 17 to 20 min
Healthy subjects; in vivo
  subjective measures of sleep quality relative to placebo: improved
[2]; 10 mg (p<0.01) and 20 mg (p<0.001)
  SWS compared with placebo: increase
[2]; 20 mg, p<0.01
  WASO: significantly reduced
[2]; 20 mg, p<0.05
  TST: significantly increased
[2]; both doses (10 and 20 mg), p<0.001
  NASO: significantly reduced
[3]; 5 mg and 15 mg, p<0.05
  TST: significantly improved
[3]; 15 mg, p<0.05
  latency to persistent sleep: significantly reduced
[3]; 15 mg
  SWS: enhance
  stage 1, stage 2, or REM sleep: without significantly affecting
[3]; statistical significance only with the 5 mg dose
  WASO: improved
[4]
  NREM sleep, sleep continuity, delta activity within NREM sleep, SWS/SWA: increase
  REM sleep: without suppressing
Cerebellar granule cells
  excitability of cerebellar granule cells: reduced
  tonic holding currents: increased
Fmr1 knockout mice
  hyperactivity (travel and velocity): reduction or dampening
  hypersensitivity to auditory stimuli: reduction
GABA
  GABA agonist activity: very potent
GABA-uptake
  activity as a GABA-uptake inhibitor: inactive
[5]; given orally, healthy subjects
  t max: 30 to 60 min
[5]; mostly unchanged
  dose excreted in the urine: More than 95%
[6]; 1.25 mg/kg and 2.5 mg/kg
  cerebellar dysfunction in vivo (hind paw abduction): effective to rescue
[6]; 1.25 mg/kg
  adverse effects (reduced time on rotarod): without adverse effects
Predisposed individuals
  adverse event: hallucinations

From patent publication US11278529B2, “Methods for treating aggression associated with Alzheimer's disease” (Ovid Therapeutics Inc., priority 2014, dated 2022)
